Holding throughout (experiment): NCI tumour cell line growth inhibition, 48 h
For assay [1], the system named is UACC-62 melanoma.
The test system of assay [2] is LOX IMVI melanoma.
The subject of assay [3] is SW-620 colon.
The test system of assay [4] is SN12C renal.
Assay [5] deals with ACHN renal.
The test system of assay [6] is HOP-62 NSCLC.
In assay [7] the test system is 786-0 renal.
In assay [8] the test system is KM12 colon.
In assay [9] the test system is RPMI-8226 leukemia.
The test system of assay [10] is PC-3 prostate.

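Interpolation was linear, between the two tested concentrations surrounding the appropriate level; five concentrations were tested over 48 hours in 96-well plates. GI50 marks 50% less growth. TGI is the concentration that stops growth completely.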

`O=C(/C=C/c1ccccc1)NC1C=Nc2ccc([N+](=O)[O-])cc2NC1=O` (configuration not stated): the TGI in [1], in assay [2], in [3], in assay [4], in assay [5] and in [6] was over 100 µM each time. Moreover, the TGI was over 100 µM in [7] and 86.7 µM in assay [8].

Turning to `CN(C)CCC(N)(P(=O)([O-])[O-])P(=O)([O-])[O-].N.N.[Pt+2]`, the GI50 in assay [1], in assay [9], in assay [2], in assay [3], in assay [4] and in assay [5] was over 100 µM in each case. Besides, the GI50 in assay [6], in assay [7] and in assay [8] was over 100 µM throughout. The TGI in [1], in [9], in [2], in assay [3], in [4] and in [5] was over 100 µM in each case. The TGI in assay [6], in assay [7] and in [8] was over 100 µM each time.

In the case of `CCN(CC)CC(=O)NC1c2ccccc2Oc2ccccc21`, the TGI in assay [1], in [9], in [2], in [3], in [4] and in [6] was over 100 µM each time. The TGI in assay [7] is over 100 µM.

As to `O=C1C2C3CC4C5C3C1C5C1(SCCS1)C42` (configuration not stated), the TGI in assay [1], in assay [9], in assay [3], in assay [4], in [5] and in [6] was over 100 µM each time. Further, the TGI in assay [7] and in assay [8] was over 100 µM throughout.

`COC(=O)C(=O)C(C#N)c1nc2ccccc2s1` (configuration not stated): the TGI in [1], in assay [9], in assay [2], in assay [3], in [4] and in [5] was over 100 µM each time. The TGI in assay [6] and in assay [7] was over 100 µM each time.

`O=C([CH-]C(=O)c1ccccc1)c1ccccc1.O=C([CH-]C(=O)c1ccccc1)c1ccccc1.O=C([CH-]C(=O)c1ccccc1)c1ccccc1.[Ga+3]`: the GI50 was 32.7 µM in assay [1]; 27 µM in assay [9]; 18 µM in assay [2]; 65.1 µM in [3]; 43.8 µM in assay [4]; 59 µM in [5]. Also, the GI50 was over 100 µM in assay [7] and 91.5 µM in [8]. Also, the TGI in [1], in [9], in assay [2], in assay [3], in assay [4] and in assay [5] was over 100 µM throughout. The TGI in [7] and in assay [8] was over 100 µM each time.

In the case of `CC(=O)C1(O)CC2(c3ccccc3)C(=O)C1(c1ccccc1)C(c1ccccc1)=C2c1ccccc1` (configuration not stated), the TGI in assay [1], in assay [9], in assay [2], in [3], in assay [4] and in assay [6] was over 100 µM each time. Also, the TGI in assay [7] and in assay [8] was over 100 µM each time.

Turning to `Nc1c(C(=O)Nc2cccc(Cl)c2)sc2nc3c(cc12)C(=O)CCC3`, the GI50 in assay [1] was 0.349 µM; in [10] it was 0.528 µM; in assay [2], 0.905 µM; in assay [3] it was 0.351 µM; in [4], 0.836 µM; in assay [5], over 20 µM. Further, the GI50 in [6] is 0.663 µM; in [7] it was 0.739 µM; in assay [8], 0.298 µM. Besides, the TGI in assay [1], in [10], in assay [2], in assay [3], in assay [4] and in assay [5] was over 100 µM each time. The TGI in assay [6], in [7] and in assay [8] was over 100 µM each time.

Consider `COc1nc(NC2OC(COC(C)=O)C(OC(C)=O)C(OC(C)=O)C2OC(C)=O)c(N=CC=Nc2c(NC3OC(COC(C)=O)C(OC(C)=O)C(OC(C)=O)C3OC(C)=O)nc(OC)[nH]c2=O)c(=O)[nH]1` (configuration not stated), for which the TGI in assay [1], in [9], in [2], in [3], in assay [4] and in assay [5] was over 100 µM throughout. The TGI in assay [6], in assay [7] and in assay [8] was over 100 µM each time.

Take `O=C(CCc1nnc2s/c(=C\c3ccc([N+](=O)[O-])cc3)c(=O)n12)Nc1ccc(Cl)c(Cl)c1`: the TGI was 78.8 µM in assay [1]; 46.5 µM in assay [9]; 31.9 µM in [2]; 58.4 µM in [3]; 63.9 µM in assay [4]; over 100 µM in assay [5]. Besides, the TGI in assay [6] came out at 45.7 µM; in assay [7] it was 35.7 µM; in assay [8], 31.2 µM.

As for `O=C1C=C(Nc2ccccc2)c2ccccc2C1=O`, the GI50 in [1] is 1.65 µM; in [9], 2.24 µM; in assay [2], 1.51 µM; in assay [3] it was 2.1 µM; in assay [4], 1.62 µM; in [5], 2.56 µM. The GI50 is 1.17 µM in assay [6], 5.17 µM in assay [7] and 2.94 µM in [8]. For the same compound, the TGI turned out to be 3.12 µM in assay [1]; 7.49 µM in assay [9]; 3.17 µM in assay [2]; 5.33 µM in assay [3]; 3.11 µM in assay [4]; 7.88 µM in assay [5]. Moreover, the TGI in assay [6] was found to be 2.83 µM; in assay [7], 18.9 µM; in assay [8], 9.17 µM.

Source of the values: PubChem BioAssay (NCI).
